# According to patent US9090610B2, “Fluoroalkyl-substituted pyrazolopyridines and use thereof” (BAYER INTELLECTUAL PROPERTY GMBH, priority 2011, dated 2015):
# Legend:
# rabbit aorta rings = assay: Vasorelaxant action in vitro (phenylephrine-contracted rabbit aortic rings); conditions: Oryctolagus cuniculus, phenylephrine-induced contraction, organ bath 37° C., 0.1% DMSO, read-out: IC50 (concentration needed to reduce the magnitude of the control contraction by 50%)
# Protocol: B-1. Vasorelaxant Action In Vitro
# Rabbits are stunned by a blow to the neck and exsanguinated. The aorta is removed, freed from adhering tissue and divided into rings of a width of 1.5 mm. The rings are placed individually under an initial tension in 5 ml organ baths with Krebs-Henseleit solution which is at 37° C., is gassed with carbogen and has the following composition (in each case mM): sodium chloride: 119; potassium chloride: 4.8; calcium chloride dihydrate: 1; magnesium sulfate heptahydrate: 1.4; potassium dihydrogenphosphate: 1.2; sodium bicarbonate: 25; glucose: 10. The contractile force is determined with Statham UC2 cells, amplified and digitalized using A/D transducers (DAS-1802 HC, Keithley Instruments Munich), and recorded in parallel on linear recorders. To obtain a contraction, phenylephrine is added to the bath cumulatively in increasing concentration. After several control cycles, the substance to be investigated is added in each further run in increasing dosage in each case, and the height of the contraction achieved is compared with the height of the contraction reached in the last preceding run. This is used to calculate the concentration needed to reduce the magnitude of the control value by 50% ([…]). The standard administration volume is 5 μl; the DMSO content in the bath solution corresponds to 0.1%.
# [1] = test system: recombinant guanylate cyclase reporter cell line; assay: Effect on a recombinant guanylate cyclase reporter cell line; assay type: cell-based; conditions: recombinant guanylate cyclase reporter cell line (Wunder et al. 2005); read-out: MEC (minimum effective concentration)
# Protocol: B-2. Effect on a Recombinant Guanylate Cyclase Reporter Cell Line
# The cellular activity of the compounds according to the invention is determined using a recombinant guanylate cyclase reporter cell line, as described in F. Wunder et al., Anal. Biochem. 339, 104-112 (2005).
SMILES,IC50 (rabbit aorta rings),minimal effective concentration [1]
"CC1(C)C(=O)Nc2nc(-c3nn(CCC(F)(F)C(F)F)c4ncc(F)cc34)nnc21 [Example 7, 3-[5-Fluoro-1-(3,3,4,4-tetrafluorobutyl)-1H-pyrazolo[3,4-b]pyridin-3-yl]-7,7-dimethyl-5,7-dihydro-6H-pyrrolo[2,3-e][1,2,4]triazin-6-one]",–,0.3 µM
"CC1(C)C(=O)Nc2nc(-c3nn(CC4CCCC4)c4ncc(F)cc34)ncc21 [Example 5, 2-[1-(Cyclopentylmethyl)-5-fluoro-1H-pyrazolo[3,4-b]pyridin-3-yl]-5,5-dimethyl-5,7-dihydro-6H-pyrrolo[2,3-d]pyrimidin-6-one]",23 nM,0.1 µM
"CC1(C)C(=O)Nc2nc(-c3nn(CC4CC(F)(F)C4)c4ncc(F)cc34)nnc21 [Example 8, 3-{1-[(3,3-Difluorocyclobutyl)methyl]-5-fluoro-1H-pyrazolo[3,4-b]pyridin-3-yl}-7,7-dimethyl-5,7-dihydro-6H-pyrrolo[2,3-e][1,2,4]triazin-6-one]",–,3 µM
"CC1(C)C(=O)Nc2nc(-c3nn(CC4CCCC4)c4ncc(F)cc34)nnc21 [Example 6, 3-[1-(Cyclopentylmethyl)-5-fluoro-1H-pyrazolo[3,4-b]pyridin-3-yl]-7,7-dimethyl-5,7-dihydro-6H-pyrrolo[2,3-e][1,2,4]triazin-6-one]",102 nM,0.1 µM

# Now from value to molecule, other results behind:
IC50 (rabbit aorta rings),SMILES,minimal effective concentration [1]
46 nM,"CC1(C)C(=O)Nc2nc(-c3nn(CCC(F)(F)C(F)(F)F)c4ncccc34)ncc21 [Example 3, 5,5-Dimethyl-2-[1-(3,3,4,4,4-pentafluorobutyl)-1H-pyrazolo[3,4-b]pyridin-3-yl]-5,7-dihydro-6H-pyrrolo[2,3-d]pyrimidin-6-one]",0.03 µM
263 nM,"CC1(C)C(=O)Nc2nc(-c3nn(CCC(F)(F)C(F)(F)F)c4ncccc34)nnc21 [Example 1, 7,7-Dimethyl-3-[1-(3,3,4,4,4-pentafluorobutyl)-1H-pyrazolo[3,4-b]pyridin-3-yl]-5,7-dihydro-6H-pyrrolo[2,3-e][1,2,4]triazin-6-one]",0.3 µM
129 nM,"CC1(C)C(=O)Nc2nc(-c3nn(CCC(F)(F)C(F)(F)F)c4ncc(F)cc34)nnc21 [Example 2, 3-[5-Fluoro-1-(3,3,4,4,4-pentafluorobutyl)-1H-pyrazolo[3,4-b]pyridin-3-yl]-7,7-dimethyl-5,7-dihydro-6H-pyrrolo[2,3-e][1,2,4]triazin-6-one]",0.1 µM
101 nM,"CC1(C)C(=O)Nc2nc(-c3nn(CCC(F)(F)C(F)(F)F)c4ncc(F)cc34)ncc21 [Example 4, 2-[5-Fluoro-1-(3,3,4,4,4-pentafluorobutyl)-1H-pyrazolo[3,4-b]pyridin-3-yl]-5,5-dimethyl-5,7-dihydro-6H-pyrrolo[2,3-d]pyrimidin-6-one]",0.03 µM
